Earlier results, collected in patent publication US9982018B2, “Amatoxin derivatives” ([…] GMBH, priority 2013, dated 2018).

Legend:
[1] = naturally occurring amatoxin lacking the γ-hydroxyl group
[2] = target: RNA polymerase II (Homo sapiens, UniProt P24928); settings: read-out: KD of complex with RNA polymerase II

Substance | toxicity [1] | Kd [2] [nM]
amanullin | considerably reduced toxicity | –
amanitin | – | 3
